Where two headings read alike, the source gives them in different places.
Assays:
Assay type in all cases: biochemical
CDK7 CyclinH = CDK7 CyclinH (Homo sapiens, UniProt P50613); assay: Inhibition assay, CDK7 CyclinH
Procedure: (§1) The reaction was terminated by the addition of EDTA. The plates were analyzed using a Caliper LabChip 3000.
(§2) Additional inhibition assays were performed as described above.

CDK1/B = CDK1/B (Homo sapiens, UniProt P06493); assay: Inhibition assay, CDK1/B
Procedure: as §1, §2

CDK9-CYCLINT1 = CDK9-CYCLINT1 (Homo sapiens, UniProt P50750); assay: Microfluidic LabChip inhibition assay, CDK9-CYCLINT1; conditions: ATP 10 μM
Chain of CDK9-CYCLINT1 (P50750 whole entry): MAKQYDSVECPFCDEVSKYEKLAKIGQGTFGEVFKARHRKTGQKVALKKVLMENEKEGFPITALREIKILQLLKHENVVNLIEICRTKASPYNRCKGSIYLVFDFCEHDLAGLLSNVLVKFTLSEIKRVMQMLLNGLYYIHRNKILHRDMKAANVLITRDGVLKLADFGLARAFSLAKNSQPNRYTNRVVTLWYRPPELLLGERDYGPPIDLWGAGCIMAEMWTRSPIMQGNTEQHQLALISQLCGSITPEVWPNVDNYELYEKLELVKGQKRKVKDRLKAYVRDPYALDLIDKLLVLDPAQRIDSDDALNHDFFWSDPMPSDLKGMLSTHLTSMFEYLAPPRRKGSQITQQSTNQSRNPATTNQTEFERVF
Chain of CDK9-CYCLINT1 (O60563 whole entry partner): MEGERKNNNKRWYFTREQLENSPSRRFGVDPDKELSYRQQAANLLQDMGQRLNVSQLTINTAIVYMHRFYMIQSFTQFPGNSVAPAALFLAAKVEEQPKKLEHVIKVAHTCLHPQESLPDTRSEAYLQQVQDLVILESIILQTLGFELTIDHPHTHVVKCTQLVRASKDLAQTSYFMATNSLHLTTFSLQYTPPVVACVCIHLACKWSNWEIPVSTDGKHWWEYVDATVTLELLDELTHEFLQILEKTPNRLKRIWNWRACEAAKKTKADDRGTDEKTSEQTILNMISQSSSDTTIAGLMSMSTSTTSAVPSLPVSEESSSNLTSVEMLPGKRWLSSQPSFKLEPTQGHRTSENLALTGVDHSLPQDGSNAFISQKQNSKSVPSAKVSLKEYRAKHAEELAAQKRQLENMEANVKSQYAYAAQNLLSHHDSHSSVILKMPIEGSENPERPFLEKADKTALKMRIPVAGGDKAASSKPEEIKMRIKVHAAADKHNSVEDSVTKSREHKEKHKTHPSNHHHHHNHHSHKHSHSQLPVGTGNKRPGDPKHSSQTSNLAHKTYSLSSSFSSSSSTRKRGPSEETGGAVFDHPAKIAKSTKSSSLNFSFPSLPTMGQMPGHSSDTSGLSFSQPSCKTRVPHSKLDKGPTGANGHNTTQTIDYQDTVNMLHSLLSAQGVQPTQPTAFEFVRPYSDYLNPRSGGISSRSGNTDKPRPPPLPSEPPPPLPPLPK
Procedure: as §1, §2

CDK2-CYCLINA = CDK2-CYCLINA (Homo sapiens, UniProt P24941); assay: Microfluidic LabChip inhibition assay, CDK2-CYCLINA; conditions: ATP 50 μM
Procedure: as §1, §2

CDK4-CYCLIND1 = CDK4-CYCLIND1 (Homo sapiens, UniProt P11802); assay: Microfluidic LabChip inhibition assay, CDK4-CYCLIND1; conditions: ATP 200 μM, second values in parentheses on the line below, not explained, read-out: CDK4 CyclinD1 IC50
Chain of CDK4-CYCLIND1 (P11802 whole entry): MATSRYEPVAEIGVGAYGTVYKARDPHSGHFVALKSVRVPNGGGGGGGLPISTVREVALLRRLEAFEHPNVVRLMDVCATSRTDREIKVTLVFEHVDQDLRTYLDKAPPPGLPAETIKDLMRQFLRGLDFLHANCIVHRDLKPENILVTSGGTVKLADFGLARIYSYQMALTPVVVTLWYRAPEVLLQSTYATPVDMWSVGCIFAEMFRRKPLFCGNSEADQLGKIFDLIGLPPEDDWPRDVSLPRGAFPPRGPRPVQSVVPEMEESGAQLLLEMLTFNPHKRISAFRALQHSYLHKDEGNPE
Chain of CDK4-CYCLIND1 (P24385 whole entry partner): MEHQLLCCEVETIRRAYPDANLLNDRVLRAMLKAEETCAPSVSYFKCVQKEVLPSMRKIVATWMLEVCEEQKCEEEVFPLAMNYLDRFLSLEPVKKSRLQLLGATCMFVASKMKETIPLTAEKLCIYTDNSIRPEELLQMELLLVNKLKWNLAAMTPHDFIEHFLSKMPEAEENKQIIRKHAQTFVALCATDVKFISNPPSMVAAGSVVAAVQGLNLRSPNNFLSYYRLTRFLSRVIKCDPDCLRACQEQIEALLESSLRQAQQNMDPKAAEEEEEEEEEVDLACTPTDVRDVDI
Procedure: as §1, §2

[1] = Table 3a, read-out: CDK1/B IC50
[2] = Table 3b, read-out: CDK1/B IC50

Chain of CDK7 CyclinH (P50613 whole entry): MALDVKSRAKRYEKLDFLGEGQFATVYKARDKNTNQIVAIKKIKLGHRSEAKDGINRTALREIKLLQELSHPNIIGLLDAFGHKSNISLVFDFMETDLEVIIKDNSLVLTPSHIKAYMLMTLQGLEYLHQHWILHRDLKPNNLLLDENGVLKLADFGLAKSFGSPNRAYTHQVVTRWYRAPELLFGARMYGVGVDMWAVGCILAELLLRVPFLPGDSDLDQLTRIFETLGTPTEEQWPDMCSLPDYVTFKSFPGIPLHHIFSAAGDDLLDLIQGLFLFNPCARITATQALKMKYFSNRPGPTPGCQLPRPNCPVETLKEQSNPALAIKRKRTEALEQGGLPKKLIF
Chain of CDK7 CyclinH (P51946 whole entry partner): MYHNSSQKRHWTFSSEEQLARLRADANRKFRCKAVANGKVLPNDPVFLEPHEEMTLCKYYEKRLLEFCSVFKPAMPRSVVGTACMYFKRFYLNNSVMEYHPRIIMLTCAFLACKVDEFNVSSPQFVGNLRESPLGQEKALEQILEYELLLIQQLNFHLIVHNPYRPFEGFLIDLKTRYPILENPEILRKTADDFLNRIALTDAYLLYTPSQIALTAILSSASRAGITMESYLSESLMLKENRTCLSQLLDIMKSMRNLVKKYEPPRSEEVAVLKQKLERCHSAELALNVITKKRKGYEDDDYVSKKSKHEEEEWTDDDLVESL
Chain of CDK7 CyclinH (P51948 whole entry partner): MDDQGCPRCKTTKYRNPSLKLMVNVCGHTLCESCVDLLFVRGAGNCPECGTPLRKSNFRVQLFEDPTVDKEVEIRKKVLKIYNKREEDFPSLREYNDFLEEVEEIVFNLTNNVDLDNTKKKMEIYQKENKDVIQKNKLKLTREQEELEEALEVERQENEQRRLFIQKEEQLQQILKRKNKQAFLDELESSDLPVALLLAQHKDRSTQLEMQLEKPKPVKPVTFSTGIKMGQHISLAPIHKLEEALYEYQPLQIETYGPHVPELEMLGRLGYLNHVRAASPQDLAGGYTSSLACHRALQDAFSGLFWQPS
Chain of CDK1/B (P06493 whole entry): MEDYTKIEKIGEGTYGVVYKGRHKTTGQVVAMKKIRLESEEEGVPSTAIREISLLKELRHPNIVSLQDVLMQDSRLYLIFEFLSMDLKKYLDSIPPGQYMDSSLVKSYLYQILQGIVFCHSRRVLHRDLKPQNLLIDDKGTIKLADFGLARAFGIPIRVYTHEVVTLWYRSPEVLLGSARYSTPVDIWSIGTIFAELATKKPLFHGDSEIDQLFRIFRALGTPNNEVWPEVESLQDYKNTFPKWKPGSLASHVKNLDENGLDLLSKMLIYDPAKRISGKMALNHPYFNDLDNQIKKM
Chain of CDK1/B (P14635 whole entry partner): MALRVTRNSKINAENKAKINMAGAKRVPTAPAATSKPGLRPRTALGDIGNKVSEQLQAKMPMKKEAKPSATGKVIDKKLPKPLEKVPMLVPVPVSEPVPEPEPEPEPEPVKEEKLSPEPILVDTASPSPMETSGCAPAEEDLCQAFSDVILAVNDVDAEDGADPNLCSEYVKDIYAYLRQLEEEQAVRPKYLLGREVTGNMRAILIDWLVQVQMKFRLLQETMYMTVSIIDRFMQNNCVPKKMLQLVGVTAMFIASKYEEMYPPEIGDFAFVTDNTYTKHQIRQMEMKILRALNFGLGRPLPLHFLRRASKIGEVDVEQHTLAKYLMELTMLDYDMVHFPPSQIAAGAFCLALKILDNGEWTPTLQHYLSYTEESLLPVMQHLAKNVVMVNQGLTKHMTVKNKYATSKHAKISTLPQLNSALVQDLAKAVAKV

IC50 (CDK7 CyclinH; Table 3a) | IC50 (CDK7 CyclinH; Table 3b) | IC50 (CDK1/B; [1]) | IC50 (CDK9-CYCLINT1; Table 3a) | IC50 (CDK9-CYCLINT1; Table 3b) | IC50 (CDK2-CYCLINA; Table 3a) | IC50 (CDK2-CYCLINA; Table 3b) | IC50 (CDK4-CYCLIND1; Table 3a) | IC50 (CDK4-CYCLIND1; Table 3b) | IC50 (CDK1/B; [2]) | IC50 (CDK1/B) | SMILES
640 nM | 640 nM | 527 nM | < 3.2 nM | < 3.2 nM | 211 nM | 211 nM | < 3.2 nM | < 3.2 nM | – | – | CC(=O)c1c(C)c2cnc(Nc3ccc(OCCN(C)C)cc3)nc2n(C2CCCC2)c1=O [Compound B59, 6-acetyl-8-cyclopentyl-2-((4-(2-(dimethylamino)ethoxy)phenyl)amino)-5-methylpyrido[2,3-d]pyrimidin-7(8H)-one]
> 10000 nM | > 10000 nM | > 10000 nM | 422 nM | 422 nM | > 10000 nM | > 10000 nM | 15.2 nM | 15.2 nM | > 10000 nM | – | CC(=O)c1c(C)c2cnc(Nc3ccc(OCCN4CCCC4)cn3)nc2n(C2CCCC2)c1=O [Compound B66, 6-acetyl-8-cyclopentyl-5-methyl-2-((5-(2-(pyrrolidin-1-yl)ethoxy)pyridin-2-yl)amino)pyrido[2,3-d]pyrimidin-7(8H)-one]
> 10000 nM | > 10000 nM | > 10000 nM | 1230 nM | 1230 nM | > 10000 nM | > 10000 nM | 48.3 nM | 48.3 nM | > 10000 nM | – | CC(=O)c1c(C)c2cnc(Nc3ccc(N4CCN(C)CC4)cn3)nc2n(C23CC(C2)C3)c1=O [Compound B93, 6-acetyl-8-(bicyclo[1.1.1]pentan-1-yl)-5-methyl-2-((5-(4-methylpiperazin-1-yl)pyridin-2-yl)amino)pyrido[2,3-d]pyrimidin-7(8H)-one]
2840 nM | 2840 nM | 4040 nM | 97.6 nM | 97.6 nM | 2790 nM | 2790 nM | 7.54 nM | 7.54 nM | – | – | CC(=O)c1c(C)c2cnc(Nc3ccc(N4CCN(C)CC4)cc3)nc2n(C23CC(C2)C3)c1=O [Compound B96, 6-acetyl-8-(bicyclo[1.1.1]pentan-1-yl)-5-methyl-2-((4-(4-methylpiperazin-1-yl)phenyl)amino)pyrido[2,3-d]pyrimidin-7(8H)-one]
327 nM | 327 nM | 509 nM | 27.5 nM | 27.5 nM | 308 nM | 308 nM | < 3.2 nM | < 3.2 nM | – | – | N#Cc1cc2cnc(Nc3ccc(N4CCN(CCO)CC4)c(F)c3)nc2n(C2CCCC2)c1=O [Compound B106, 8-cyclopentyl-2-((3-fluoro-4-(4-(2-hydroxyethyl)piperazin-1-yl)phenyl)amino)-7-oxo-7,8-dihydropyrido[2,3-d]pyrimidine-6-carbonitrile]
> 10000 nM | > 10000 nM | > 10000 nM | > 10000 nM | > 10000 nM | > 10000 nM | > 10000 nM | > 10000 nM | > 10000 nM | > 10000 nM | – | CS(=O)(=O)N1CCC(Nc2ncc3cc(C#N)c(=O)n(C45CC(C4)C5)c3n2)CC1 [Compound B113, 8-(bicyclo[1.1.1]pentan-1-yl)-2-((1-(methylsulfonyl)piperidin-4-yl)amino)-7-oxo-7,8-dihydropyrido[2,3-d]pyrimidine-6-carbonitrile]
> 10000 nM | > 10000 nM | > 10000 nM | 733 nM | 733 nM | > 10000 nM | > 10000 nM | 505 nM | 505 nM | > 10000 nM | – | CN(C)CCOc1ccc(Nc2ncc3cc(C#N)c(=O)n(C45CC(C4)C5)c3n2)nc1 [Compound B149, 8-(bicyclo[1.1.1]pentan-1-yl)-2-((5-(2-(dimethylamino)ethoxy)pyridin-2-yl)amino)-7-oxo-7,8-dihydropyrido[2,3-d]pyrimidine-6-carbonitrile]
> 10000 nM | > 10000 nM | > 10000 nM | 5140 nM | 5140 nM | > 10000 nM | > 10000 nM | 8.93 nM | 8.93 nM | > 10000 nM | – | Cc1c(C(=O)N(C)C)c(=O)n(C2CCCC2)c2nc(Nc3ccc(N4CC(C)NC(C)C4)cc3)ncc12 (centres unmarked) [Compound B151, 8-cyclopentyl-2-((4-(3,5-dimethylpiperazin-1-yl)phenyl)amino)-N,N,5-trimethyl-7-oxo-7,8-dihydropyrido[2,3-d]pyrimidine-6-carboxamide]
745 nM | 745 nM | – | 105 nM | 105 nM | 15.3 nM | 15.3 nM | 3.29 nM | 3.29 nM | – | 47.9 nM | CS(=O)(=O)N1CCC(Nc2ncc3cc(C#N)c(=O)n(C4CCCC4)c3n2)CC1 [Compound B152, 8-cyclopentyl-2-((1-(methylsulfonyl)piperidin-4-yl)amino)-7-oxo-7,8-dihydropyrido[2,3-d]pyrimidine-6-carbonitrile]
> 10000 nM | > 10000 nM | 763 nM | 4580 nM | 4580 nM | 285 nM | 285 nM | 21.3 nM | 21.3 nM | – | – | CN(C)C(=O)c1cc2cnc(NC3CCN(S(C)(=O)=O)CC3)nc2n(C2CCCC2)c1=O [Compound B153, 8-cyclopentyl-N,N-dimethyl-2-((1-(methylsulfonyl)piperidin-4-yl)amino)-7-oxo-7,8-dihydropyrido[2,3-d]pyrimidine-6-carboxamide]
> 10000 nM | > 10000 nM | 2820 nM | > 10000 nM | > 10000 nM | 1020 nM | 1020 nM | 101 nM | 101 nM | – | – | Cc1c(C(=O)N(C)C)c(=O)n(C23CC(C2)C3)c2nc(NC3CCN(S(C)(=O)=O)CC3)ncc12 [Compound B156, 8-(bicyclo[1.1.1]pentan-1-yl)-N,N,5-trimethyl-2-((1-(methylsulfonyl)piperidin-4-yl)amino)-7-oxo-7,8-dihydropyrido[2,3-d]pyrimidine-6-carboxamide]
> 10000 nM | > 10000 nM | > 10000 nM | 2450 nM | 2450 nM | 5250 nM | 5250 nM | 1250 nM | 1250 nM | > 10000 nM | – | Cc1c(C(=O)N(C)C)c(=O)n(C23CC(C2)C3)c2nc(NC3CC4CCC3C4)ncc12 (centres unmarked) [Compound B157, 8-(bicyclo[1.1.1]pentan-1-yl)-2-(bicyclo[2.2.1]heptan-2-ylamino)-N,N,5-trimethyl-7-oxo-7,8-dihydropyrido[2,3-d]pyrimidine-6-carboxamide]
> 10000 nM | – | > 10000 nM | 2750 nM | 2750 nM | > 10000 nM | > 10000 nM | 1590 nM | 1590 nM | – | – | Cc1c(C(=O)N(C)C)c(=O)n(C23CC(C2)C3)c2nc(NC3CC4CCC3C4)ncc12 (centres unmarked) [Compound B158, 8-(bicyclo[1.1.1]pentan-1-yl)-2-(bicyclo[2.2.1]heptan-2-ylamino)-N,N,5-trimethyl-7-oxo-7,8-dihydropyrido[2,3-d]pyrimidine-6-carboxamide]
2420 nM | 2420 nM | 1300 nM | 90.6 nM | 90.6 nM | 500 nM | 500 nM | 4.02 nM | 4.02 nM | – | – | CN1CC2(C1)CN(c1ccc(Nc3ncc4cc(C#N)c(=O)n(C5CCCC5)c4n3)cc1)C2 [Compound B159, 8-cyclopentyl-2-((4-(6-methyl-2,6-diazaspiro[3.3]heptan-2-yl)phenyl)amino)-7-oxo-7,8-dihydropyrido[2,3-d]pyrimidine-6-carbonitrile]

Source: patent US20220220103A1, “CYCLIN-DEPENDENT KINASE INHIBITORS” (SPV THERAPEUTICS INC., priority 2018, published 2022)
